{
  "source": "patent US6764999B2",
  "about": "“Nasal delivery of parasiticides” (priority 2002, dated 2004)",
  "key": {"[1]": {"conditions": "autoclave temperatures; cited from earlier work"}, "[2]": {"conditions": "injection, about 200 micrograms per kilogram of bodyweight; cited from earlier work"}, "[3]": {"test_system": "most parasites", "conditions": "cattle; cited from earlier work"}, "[4]": {"test_system": "Trichostrongylus colubriformis", "conditions": "cited from earlier work"}, "[5]": {"test_system": "Haemonchus contortus", "conditions": "cited from earlier work"}, "[6]": {"assay": "serum levels of ivermectin after administration to the nasal pharynx", "format": "in vivo, beef steers", "experimental": "To study the dose/response efficacy of nasal administration of macrocyclic lactone parasicides, three (3) beef steers of mixed breeding were used to evaluate three treatments. These three treatments were:\nTreatments were applied and cattle were bled via jugular venipuncture at 0, 6, 24, 48, and 96 hours post-dosing.\nTable I recites serum levels of ivermectin, in nanograms per milliliter, for the three treatments recited above at 0, 6, 24, 48, and 96 hours post dosing by nasal administration. Each treatment included delivering a 1 ml mixture comprising ivermectin and propylene glycol to the nasal pharnyx of the animal."}, "[7]": {"conditions": "topical, 500 micrograms per kilogram body weight; cited from earlier work"}},
  "data": [
    {"substance": "ivermectin", "values": [
      {"measurement": "thermal stability", "setting": "[1]", "result": "subject to decomposition at autoclave temperatures"},
      {"measurement": "CMAX serum level", "setting": "[2]", "result": "about 30 ng/ml"},
      {"measurement": "serum level sufficient to protect the animal against reinfestation of most parasites", "setting": "[3]", "result": "> 2", "unit": "ng/mL"},
      {"measurement": "inhibition of pharyngeal pumping compared with motility", "setting": "[4]", "result": "more potent inhibition of pharyngeal pumping than motility"},
      {"measurement": "inhibition of pharyngeal pumping compared with motility", "setting": "[5]", "result": "more potent inhibition of pharyngeal pumping than motility"},
      {"measurement": "serum level of ivermectin", "setting": "[6]; Treatment 1, nasal, about 248 μg/kg in propylene glycol, 0 Hours", "result": 0.19, "unit": "nanograms per milliliter"},
      {"measurement": "serum level of ivermectin", "setting": "[6]; Treatment 1, nasal, about 248 μg/kg in propylene glycol, 6 Hours", "result": 5.87, "unit": "nanograms per milliliter"},
      {"measurement": "serum level of ivermectin", "setting": "[6]; Treatment 1, nasal, about 248 μg/kg in propylene glycol, 24 Hours", "result": 15.24, "unit": "nanograms per milliliter"},
      {"measurement": "serum level of ivermectin", "setting": "[6]; Treatment 1, nasal, about 248 μg/kg in propylene glycol, 48 Hours", "result": 11.22, "unit": "nanograms per milliliter"},
      {"measurement": "serum level of ivermectin", "setting": "[6]; Treatment 1, nasal, about 248 μg/kg in propylene glycol, 96 Hours", "result": 7.58, "unit": "nanograms per milliliter"},
      {"measurement": "maximum serum level CMAX(1)", "setting": "[6]; Treatment 1, nasal, about 248 micrograms per kilogram body weight", "result": "about 15 nanograms of ivermectin per ml of blood"},
      {"measurement": "CMAX(1)", "setting": "[6]; Treatment 1, nasal, about 248 micrograms per kilogram, as restated", "result": "greater than 15 ng/ml"},
      {"measurement": "serum level of ivermectin", "setting": "[6]; Treatment 2, nasal, about 409 μg/kg in propylene glycol, 0 Hours", "result": 0.21, "unit": "nanograms per milliliter"},
      {"measurement": "serum level of ivermectin", "setting": "[6]; Treatment 2, nasal, about 409 μg/kg in propylene glycol, 6 Hours", "result": 6.58, "unit": "nanograms per milliliter"},
      {"measurement": "serum level of ivermectin", "setting": "[6]; Treatment 2, nasal, about 409 μg/kg in propylene glycol, 24 Hours", "result": 24.48, "unit": "nanograms per milliliter"},
      {"measurement": "serum level of ivermectin", "setting": "[6]; Treatment 2, nasal, about 409 μg/kg in propylene glycol, 48 Hours", "result": 19.71, "unit": "nanograms per milliliter"},
      {"measurement": "serum level of ivermectin", "setting": "[6]; Treatment 2, nasal, about 409 μg/kg in propylene glycol, 96 Hours", "result": 13.88, "unit": "nanograms per milliliter"},
      {"measurement": "maximum serum level CMAX(2)", "setting": "[6]; Treatment 2, nasal, about 409 micrograms per kilogram body weight", "result": "about 24 nanograms of ivermectin per ml of blood"},
      {"measurement": "serum level of ivermectin", "setting": "[6]; Treatment 3, nasal, about 872 μg/kg in propylene glycol, 0 Hours", "result": 0.22, "unit": "nanograms per milliliter"},
      {"measurement": "serum level of ivermectin", "setting": "[6]; Treatment 3, nasal, about 872 μg/kg in propylene glycol, 6 Hours", "result": 22.51, "unit": "nanograms per milliliter"},
      {"measurement": "serum level of ivermectin", "setting": "[6]; Treatment 3, nasal, about 872 μg/kg in propylene glycol, 24 Hours", "result": 40.79, "unit": "nanograms per milliliter"},
      {"measurement": "serum level of ivermectin", "setting": "[6]; Treatment 3, nasal, about 872 μg/kg in propylene glycol, 48 Hours", "result": 30.53, "unit": "nanograms per milliliter"},
      {"measurement": "serum level of ivermectin", "setting": "[6]; Treatment 3, nasal, about 872 μg/kg in propylene glycol, 96 Hours", "result": 19.38, "unit": "nanograms per milliliter"},
      {"measurement": "maximum serum level CMAX(3)", "setting": "[6]; Treatment 3, nasal, about 872 micrograms per kilogram body weight", "result": "about 41 nanograms of ivermectin per ml of blood"},
      {"measurement": "time for which serum levels of ivermectin exceed 2 ng ml^−1", "setting": "[6]; all three treatments, nasal", "result": "> 96", "unit": "h"},
      {"measurement": "CMAX", "setting": "[7]", "result": 12.2, "unit": "ng/mL"}
    ]}
  ]
}
